Reference: patent US4598080A, “Certain-2-methyl-6-{4-[1-phenyl-1-hydroxypropyl]-phenoxymethyl}pyridines which inhibit microsonal monoxygenase systems in liver” (Richter Gedeon Vegyeszeti Gyar Rt, priority 1982, dated 1986)

Legend:
hexobarbital oxidase = test: hexobarbital narcosis period (change of hexobarbital oxidase activity in vivo); design: species or system rat; settings: mean ± S.E.; for Hexobarbital Narcosis period in % of the control, 1 hour: 1 hour after administration; for Hexobarbital Narcosis period in % of the control (24 hours): 24 hours after administration
Method: The enzyme inhibiting activity of the new compounds was tested in vivo, by measuring the change of hexobarbital oxidase activity. Female Hann.-Wistarrats, each weighing 50 to 60 g. were treated orally with a single 40 mg./kg. dose of the test compound. 1 and 24 hours after the administration of the active ingredient, the animals were narcotized with a 60 mg./kg. i.v. dosage of hexobarbital sodium, and the time elapsed until complete wakening was measured (Noordhoek, J.: Eur. J. Pharmacol., 3, 242 (1968)). The data were recorded, and the mean values, the standard errors, as well as the percentage increase with respect to the controls were calculated for each group. […] The hexobarbital concentration of the plasm, measured on the instant wakening, was the same for both the treated and the control animals, and thus the increase of narcosis period was not due to a certain central nervous interaction (Jori, A. et al.: Biochem. Pharmacol., 19, 2687 (1970)).

aminopyrine demethylase = aminopyrine demethylase activity of liver after oral treatment; type: in vivo, rat; settings: female H.Wistar rats, single 40 mg./kg. oral dose, liver taken two hours after treatment, results in % of the control (control = 260.7 ± 11.2 nmoles/g/min), mean ± S.E., the values are: activity
Method: The enzyme inhibiting activity of the compounds of the formula (I) was further tested by determining the activity of the polysubstrate monooxygense enzyme system of the liver after treatment with the placebo and the compounds according to the invention, respectively. Female H.Wistar rats weighing 50 to 60 g. each were administered a single 40 mg./kg. dose of the test compounds, orally. Two hours after treatment the animals were decapitated and the livers were eliminated. After rinsing with a physiological saline solution at 0° C., drying and weighing, the livers were homogenized in a 0.1 molar Tris-HCl buffer (pH=7.2), containing 1.15% of potassium chloride at 0° C., centrifuged at 9000 g for 20 minutes, and the supernatant (postmitochondrial fraction) was used for further investigations. The microsomal fraction was prepared following the method developed by Cinti D. L. et al.: Biochem. Pharmacol., 21, 3249 (1972). The activity of aniline hydroxylase was determined from the velocity of p-amino-phenol formation according to Chabra R. S. et al.: Toxicol. Appl. Pharmacol., 22, 50 ( 1972). The activity of the aminopyrine demethylase was measured from the amount of the formaldehyde formed, according to Gourlay G. K. et al.: Biochem. Pharmacol., 27, 965 (1978). The control groups were treated with a placebo.

acute toxicity = settings: rat, in vivo, po; H-Wistar rats of both sexes, single 500 mg./kg. p.o., observed for 14 days; read-out: Perished animals (%)
Method: The acute toxicity of the compounds of the formula (I) was tested on H-Wistar rats of both sexes, weighing 160 to 180 g. each. The compounds were administered in a single 500 mg./kg. dose, orally.

[1] = from H. Ippen: Index Pharmacorum (1970); cited from earlier work
[2] = female Hann.-Wistar rats, single 40 mg./kg. oral dose, hexobarbital sodium 60 mg./kg. i.v.
[3] = reference compound, dose 100 mg/kg

SMILES	Hexobarbital Narcosis period in % of the control, 1 hour (hexobarbital oxidase; [2])	Hexobarbital Narcosis period in % of the control (24 hours) (hexobarbital oxidase; [2])	Aminopyrine demethylase (aminopyrine demethylase) [%]	mortality at 336 h (acute toxicity) [%]	Hexobarbital Narcosis period in % of the control, 1 hour (hexobarbital oxidase; [3])	Hexobarbital Narcosis period in % of the control (24 hours) (hexobarbital oxidase; [3])	anticonvulsive side effect [1]
CCC(O)(c1ccc(Cl)cc1)c1ccc(OCc2cccc(C)n2)cc1 (centres unmarked) [A, 2-methyl-6-{4-[1-(4-chlorophenyl)-1-hydroxypropyl]-phenoxymethyl}-pyridine]	259 ± 11.4 % of the control	155 ± 9.6 % of the control	55 ± 4.4	0			
CCC(O)(c1ccc(OCc2cccc(C)n2)cc1)c1cc(C)ccc1C (centres unmarked) [B, 2-methyl-6-{4-[1-(2,5-dimethylphenyl)-1-hydroxypropyl]-phenoxymethyl}-pyridine]	135 ± 6.7 % of the control	174 ± 7.2 % of the control	63 ± 4.4	0			
CCCC(C(=O)OCCN(CC)CC)(c1ccccc1)c1ccccc1 [Proadiphene, (2-diethylaminoethyl)-α,α-diphenyl valerate, reference compound]					241 ± 9.6 % of the control	44 ± 5.7 % of the control	exerted an anticonvulsive side effect
